How the values were obtained:
Assay type in all cases: cell-based, human
[1] = test system: LNCaP cells; assay: Effect of butyrate on LNCaP cell growth; details: butyrate treatment, FIG. 10A
Protocol: (§1) FIGS. 10A and 10B show a pair of graphs illustrating the effects of sodium butyrate on LNCaP cell population (FIG. 10A) accompanied by a western blot showing resolution of NSE and RPTPα expression levels in LNCaP cells in the presence of increasing concentrations of sodium butyrate (FIG. 10B).
(§2) The regulation of RPTPα expression was then investigated in prostate cancer cells. The regulation of RPTPα expression was measured using butyrate since this pharmacological reagent induces cellular differentiation and has been utilized in the clinical trials for advanced prostate cancer therapy (29). […] This 160 kDa protein may represent an isoform of RPTPα, due to post-translational modifications (27,28).

[2] = test system: RPTPα; assay: Western blot of RPTPα expression in butyrate-treated LNCaP cells; details: increasing concentrations of sodium butyrate, FIG. 10B
Protocol: as §1, §2

[3] = test system: NSE; assay: Western blot of NSE expression in butyrate-treated LNCaP cells; details: increasing concentrations of sodium butyrate, FIG. 10B
Protocol: as §1, §2

[4] = test system: NSE; assay: Induction of NE transdifferentiation (NSE expression, western blot) in LNCaP cells cultured in steroid-reduced condition; details: androgen-responsive LNCaP cells in steroid-reduced condition, FIG. 7C
Excerpt: (§3) FIGS. 7A-7C show three western blots. FIG. 7A is a western blot showing levels of MEK and phosphorylated MEK in LNCaP cells and three NE-like subclone cells, NE-1-3, NE-1-8 and NE-1-9. FIG. 7B is a western blot showing inhibition of ERK activation levels in the presence of the MEK inhibitor, PD098059, in NE-1-3 subclone cells. FIG. 7C is a western blot showing inhibition of NSE expression levels mediated by the MEK inhibitor, PD098059, in steroid-reduced medium.
(§4) To test the causal relationship of ERK/MAPK activation with NE-like transdifferentiation, MEKs, up-stream regulators of ERK/MAPK kinases, were examined to determine if they are also activated in the NE-like subclone cells.

[5] = test system: ERK/MAPK; assay: Western blot of ERK/MAPK activation in NE-like subclone cells with MEK inhibitor; details: NE-like subclone cells (NE-1-3), FIG. 7B
Excerpt: as §3, §4

Row | SMILES | growth of LNCaP cells [1] | RPTPα protein expression [2] | NSE protein expression [3] | induction of NE transdifferentiation (NSE expression) [4] | activation of ERK/MAPK (phosphorylated ERK) [5]
1 | CCCC(=O)[O-].[Na+] [Butyrate, sodium butyrate] | growth suppression | elevated levels | elevated levels | – | –
2 | COc1cccc(-c2cc(=O)c3ccccc3o2)c1N [PD098059] | – | – | – | abolished | effectively inhibited

From patent US7238524B2, “Prostate cancer cell lines” (Board of Regents of the University of Nebraska, priority 2001, dated 2007)
